What was measured:
[1] = Ingestion of HCA by persons, serum levels and appetite (controlled trials); assay type: in vivo
Description: (§1) It has been shown that ingestion of compositions incorporating a salt of (−) hydroxycitric acid (HCA) leads to increased levels of serotonin. Serotonin levels, like ghrelin levels, also are related to NPY, and an increase in serotonin levels is a well-established mechanism of appetite suppression. Ingestion of HCA by persons and rodents results in a decrease in serum leptin and ghrelin levels and an increase in serum serotonin levels.

[2] = Ingestion of HCA by rodents, serum levels; assay type: in vivo
Description: as §1

cholesterol [3] = settings: in vivo; cited from earlier work
cholesterol [4] = settings: animal models; cited from earlier work
DNA = settings: cited from earlier work

## O=C(O)CC(O)(C(=O)O)C(O)C(=O)O (single isomer, unassigned; (-)) [HCA, (−)hydroxycitric acid]
[1]; amount of food remaining on plates, controlled trials
  appetite: time-dependent decrease in appetite
[1]; ingestion of HCA
  serum ghrelin levels: decrease
  serum leptin levels: decrease
  serum serotonin levels: increase
[2]
  serum ghrelin levels: decrease
  serum leptin levels: decrease
  serum serotonin levels: increase

## O=C(O[C@@H]1Cc2c(O)cc(O)cc2O[C@@H]1c1cc(O)c(O)c(O)c1)c1cc(O)c(O)c(O)c1 [EGCG, epigallocatechin gallate]
Cholesterol [3]
  cholesterol levels: reduce cholesterol levels

## Gymnemic acid
Cholesterol [4]
  cholesterol: lower cholesterol

## chromium picolinate
DNA
  safety and toxicity: damage DNA and be mutagenic

Reference: patent US20040186181A1, “Method and composition for decreasing ghrelin levels” (InterHealth Nutraceuticals, Incorporated, priority 2003, published 2004)
